This note sets out measurements from patent publication US20190345478A1, “T[…] AND SYSTEMS FOR DIAGNOSIS AND TREATMENT OF MALARIA” (WILLIAM MARSH RICE UNIVERSITY, priority 2012, published 2019).

For this experiment, the system named is Plasmodium falciparum (strain 3D7). Kind of experiment: Parasiticidal effect: level of parasitemia (percentage of MIRBCs) after bulk flow treatment of P. falciparum-infected human RBCs. Type of experiment: cell-based. The conditions noted are these: chloroquine 1 μM added immediately prior to flow treatment; PTNB mode 70 ps laser pulse; level of MIRBCs at 24 hours; FIG. 12c.

Turning to `CCN(CC)CCCC(C)Nc1ccnc2cc(Cl)ccc12` (stereo not shown) [chloroquine], the “parasiticidal efficacy of PTNB mode compared with chloroquine” value is on record as “three-fold higher parasiticidal efficacy than chloroquine”.
